Measured values: patent EP0155799A2, “Paulomycin analogues and their preparation” (THE UPJOHN COMPANY, priority 1984, dated 1985)
Converted amounts (≈) assume the structure as drawn. Like-named read-outs stand apart in the source and are kept apart here.

What was measured:
Citrobacter freundii = assay: MIC, standard microplate agar assay, PYG agar pH 6 (aerobic bacteria); format: cell-based; conditions: UC3507, 24 h; Citrobacter freundii UC 3507, pH 6; read-out: MINIMAL INHIBITORY CONCENTRATION
Protocol: (§1) The antibacterial assay is a standard microplate agar assay using PYG agar, pH 6. PYG agar consists of the following ingredients:
(§2) The MIC is determined by standard methods. The inocula are overnight cultures of the test organisms, diluted so that the final population contains approximately 10^5 cells/ml. The agar plates are incubated at 28°C to 37°C for 24 hrs. The lowest antibiotic concentration which allows no growth=MIC or minimum inhibitory concentration.
as §2, with “growth-HIC” for “growth=MIC”

Streptococcus faecalis = assay: as above; format: cell-based; conditions: Enterococcus faecalis, UC694, 24 h; Streptococcus faecalis UC 694, pH 6; read-out: MINIMAL INHIBITORY CONCENTRATION
Protocol: as §1, §2
as §2, with “growth-HIC” for “growth=MIC”

Enterobacter cloacae = assay: as above; format: cell-based; conditions: read-out: MINIMAL INHIBITORY CONCENTRATION
Protocol: as §1, §2
as §2, with “growth-HIC” for “growth=MIC”

Klebsiella pneumoniae = assay: as above; format: cell-based; conditions: UC58, 24 h; Klebsiella pneumoniae UC 58, pH 6; read-out: MINIMAL INHIBITORY CONCENTRATION
Protocol: as §1, §2
as §2, with “growth-HIC” for “growth=MIC”

Klebsiella oxytoca = assay: as above; format: cell-based; conditions: read-out: MINIMAL INHIBITORY CONCENTRATION
Protocol: as §1, §2
as §2, with “growth-HIC” for “growth=MIC”

Escherichia coli = assay: as above; format: cell-based; conditions: read-out: MINIMAL INHIBITORY CONCENTRATION
Protocol: as §1, §2
as §2, with “growth-HIC” for “growth=MIC”

Staphylococcus aureus = assay: as above; format: cell-based; conditions: read-out: MINIMAL INHIBITORY CONCENTRATION
Protocol: as §1, §2
as §2, with “growth-HIC” for “growth=MIC”

Pseudomonas aeruginosa = assay: as above; format: cell-based; conditions: read-out: MINIMAL INHIBITORY CONCENTRATION
Protocol: as §1, §2
as §2, with “growth-HIC” for “growth=MIC”

Serratia marcescens = assay: as above; format: cell-based; conditions: for MIC: Serratia marcescens, UC6888, 24 h, pH 6, Serratia marcescens UC 6888, pH 6, read-out: MINIMAL INHIBITORY CONCENTRATION
Protocol: as §1, §2
as §2, with “growth-HIC” for “growth=MIC”

Proteus vulgaris = assay: as above; format: cell-based; conditions: UC30264, 24 h; Proteus vulgaris UC 30264, pH 6; read-out: MINIMAL INHIBITORY CONCENTRATION
Protocol: as §1, §2
as §2, with “growth-HIC” for “growth=MIC”

[1] = Solubility (characterization); format: physicochemical; conditions: solvents as named in the value
[2] = system: Staphylococcus aureus U.C. 6685; assay: Antibacterial activity in vivo, experimentally infected mouse; conditions: sc, dosed subcutaneously, infected experimentally with Staphylococcus aureus U.C. 6685, read-out: CD50 (the source's name)
[3] = UC9381, 24 h, Enterobacter cloacae UC 9381, pH 6
[4] = UC9382, 24 h, Enterobacter cloacae UC 9382, pH 6
[5] = UC9383, 24 h, Klebsiella oxytoca UC 9383, pH 6
[6] = UC9384, 24 h, Klebsiella oxytoca UC 9384, pH 6
[7] = UC311, 24 h, Escherichia coli UC 311, pH 6
[8] = UC9379, 24 h, Escherichia coli UC 9379, pH 6
[9] = UC9380, 24 h, Escherichia coli UC 9380, pH 6
[10] = UC3665, 24 h, Staphylococcus aureus UC 3665, pH 6
[11] = UC6675, 24 h, Staphylococcus aureus UC 6675, pH 6
[12] = UC6685, 24 h, Staphylococcus aureus UC 6685, pH 6
[13] = UC6432, 24 h, Pseudomonas aeruginosa UC 6432, pH 6
[14] = UC9191, 24 h, Pseudomonas aeruginosa UC 9191, pH 6

CC=C(N=C=S)C(=O)OC1C(COC(C)=O)OC(C2(O)CC(=O)C(O)=C(C(N)=O)C2=O)C(O)C1OC1CC(OC)C(O)(C(C)OC(=O)CC(C)C)C(C)O1 (stereo not drawn) [Paulomycin A2]
MIC (Citrobacter freundii): > 64 µg/mL
MIC (Streptococcus faecalis): 0.25 µg/mL (≈ 0.318 µM)
MIC (Enterobacter cloacae; [3]): > 64 µg/mL
MIC (Enterobacter cloacae; [4]): > 64 µg/mL
MIC (Klebsiella pneumoniae): > 64 µg/mL
MIC (Klebsiella oxytoca; [5]): > 64 µg/mL
MIC (Klebsiella oxytoca; [6]): > 64 µg/mL
MIC (Escherichia coli; [7]): > 64 µg/mL
MIC (Escherichia coli; [8]): > 64 µg/mL
MIC (Escherichia coli; [9]): > 64 µg/mL
MIC (Staphylococcus aureus; [10]): 0.12 µg/mL (≈ 0.153 µM)
MIC (Staphylococcus aureus; [11]): 0.12 µg/mL (≈ 0.153 µM)
MIC (Staphylococcus aureus; [12]): 0.12 µg/mL (≈ 0.153 µM)
MIC (Pseudomonas aeruginosa; [13]): > 64 µg/mL
MIC (Pseudomonas aeruginosa; [14]): > 64 µg/mL
MIC (Serratia marcescens): > 64 µg/mL
MIC (Proteus vulgaris): 32 µg/mL (≈ 40.7 µM)
Solubility [1]: Soluble in lower alcohols, ketones, ethyl acetate, chloroform, methylene chloride; less soluble in ether; insoluble in saturated hdyrocarbon solvents

CC=C(N=C=S)C(=O)OC1C(COC(C)=O)OC(C2(O)CC(=O)C(O)=C(C(N)=O)C2=O)C(O)C1OC1CC(OC)C(O)(C(C)OC(=O)C(C)CC)C(C)O1 (stereo not drawn) [Paulomycin A]
MIC (Citrobacter freundii): > 64 µg/mL
MIC (Streptococcus faecalis): 0.25 µg/mL (≈ 0.318 µM)
MIC (Enterobacter cloacae; [3]): > 64 µg/mL
MIC (Enterobacter cloacae; [4]): > 64 µg/mL
MIC (Klebsiella pneumoniae): > 64 µg/mL
MIC (Klebsiella oxytoca; [5]): > 64 µg/mL
MIC (Klebsiella oxytoca; [6]): > 64 µg/mL
MIC (Escherichia coli; [7]): > 64 µg/mL
MIC (Escherichia coli; [8]): > 64 µg/mL
MIC (Escherichia coli; [9]): > 64 µg/mL
MIC (Staphylococcus aureus; [10]): 0.12 µg/mL (≈ 0.153 µM)
MIC (Staphylococcus aureus; [11]): 0.12 µg/mL (≈ 0.153 µM)
MIC (Staphylococcus aureus; [12]): 0.12 µg/mL (≈ 0.153 µM)
MIC (Pseudomonas aeruginosa; [13]): > 64 µg/mL
MIC (Pseudomonas aeruginosa; [14]): > 64 µg/mL
MINIMAL INHIBITORY CONCENTRATION (Serratia marcescens; Serratia marcescens UC 6888, pH 6): 64 µg/mL
MIC (Serratia marcescens): > 64 µg/mL
MIC (Proteus vulgaris): 16 µg/mL (≈ 20.3 µM)

CC=C(N=C=S)C(=O)OC1C(COC(C)=O)OC(C2(O)CC(=O)C(O)=C(C(N)=O)C2=O)C(O)C1OC1CC(OC)C(O)(C(C)=O)C(C)O1 (stereo not drawn) [Paulomycin E]
MIC (Citrobacter freundii): > 64 µg/mL
MIC (Streptococcus faecalis): 1 µg/mL (≈ 1.43 µM)
MIC (Enterobacter cloacae; [3]): > 64 µg/mL
MIC (Enterobacter cloacae; [4]): > 64 µg/mL
MIC (Klebsiella pneumoniae): > 64 µg/mL
MIC (Klebsiella oxytoca; [5]): > 64 µg/mL
MIC (Klebsiella oxytoca; [6]): > 64 µg/mL
MIC (Escherichia coli; [7]): > 64 µg/mL
MIC (Escherichia coli; [8]): > 64 µg/mL
MIC (Escherichia coli; [9]): > 64 µg/mL
MIC (Staphylococcus aureus; [10]): 1 µg/mL (≈ 1.43 µM)
MIC (Staphylococcus aureus; [11]): 1 µg/mL (≈ 1.43 µM)
MIC (Staphylococcus aureus; [12]): 1 µg/mL (≈ 1.43 µM)
MIC (Pseudomonas aeruginosa; [13]): > 64 µg/mL
MIC (Pseudomonas aeruginosa; [14]): > 64 µg/mL
MIC (Serratia marcescens): > 64 µg/mL
MIC (Proteus vulgaris): > 64 µg/mL
Solubility [1]: Soluble in lower alcohols, ketones, ethyl acetate, chloroform, methylene chloride; less soluble in ether; insoluble in saturated hdyrocarbon solvents

CCC(C)C(=O)OC(C)C1(O)C(C)OC(OC2C(O)C(C3(O)CC(=O)C(O)=C(C(N)=O)C3=O)OC(COC(C)=O)C2OC(=O)C(NC(=S)SC[C@H](NC(C)=O)C(=O)O)C(C)SCCO)CC1OC (stereo partly drawn) [R2=CH2CH2OH R3=CH2CHCOOH | NHCOCH3]
ED50 [2]: 15.3 mg/kg

CCC(C)C(=O)OC(C)C1(O)C(C)OC(OC2C(O)C(C3(O)CC(=O)C(O)=C(C(N)=O)C3=O)OC(COC(C)=O)C2OC(=O)C(NC(=S)SCCO)C(C)SC[C@H](NC(C)=O)C(=O)O)CC1OC (stereo partly drawn) [R2=CH2CHCOOH | NHCOCH3 R3=CH2CH2OH]
ED50 [2]: 8 mg/kg

CCC(C)C(=O)OC(C)C1(O)C(C)OC(OC2C(O)C(C3(O)CC(=O)C(O)=C(C(N)=O)C3=O)OC(COC(C)=O)C2OC(=O)C(NC(=S)SCCO)C(C)SC(CC(=O)O)C(=O)O)CC1OC (stereo not drawn) [R2=CHCOOH | CH2COOH R3=CH2CH2OH]
ED50 [2]: 44 mg/kg
